According to US9907860B2, “Conjugated molecules comprising a peptide derived from the CD4 receptor coupled to an anionic polypeptide for the treatment of AIDS” (INSTITUT PASTEUR, priority 2014, dated 2018):

Columns and labels:
[1] = test system: SHIV162p3 viral strain (B-R5); test: Antiviral activity on TZM-bl cells, SHIV162p3 strain; type: cell-based; settings: luciferase, 48 h, clade-tropism B-R5
Experimental: (§1) The antiviral activity of the tested compounds was determined by pre-incubating 10^4 TZM-bl cells/well in a 96-well plate for 30 min at 37° C. and 5% CO2 with or without a serial dilution of the compound. Next, 200 TCID50 of viruses were added to each well and cultures were incubated for 48 h before luciferase activity was quantified. Each compound was tested in triplicate in a single experiment. Antiviral activity was expressed as the percentage of viral inhibition compared to the untreated control and plotted against the compound concentration. Next, non-linear regression analysis was used to calculate the 50% effective concentration (EC50).
(§2) The miniCD4 conjugates were then evaluated for their antiviral activity on TZM-bl cells that express Luciferase under the control of the HIV LTR (collaboration G. Vanham, Anvers) according to the protocol described above. All antiviral results are reported in the table below in the form of EC50 values (nM).

[2] = Cytotoxic activity, WST-1 cell proliferation assay; type: cell-based; settings: human
Experimental: Cytotoxicity was determined using the water-soluble tetrazolium-1 (WST-1) cell proliferation assay, which is based on the cleavage of the tetrazolium salt WST-1 to a formazan dye by cellular dehydrogenases. Because this bioreduction is dependent on the glycolytic production of NAD(P)H in viable cells, the amount of formazan dye formed is correlated directly to the number of viable cells in a culture. Quantification is performed by measuring absorbance at 450 nm in a multiwell plate reader. An amount of 10^4 cells was plated per well in a 96-well plate, and a serial dilution of compound was added. Forty eight hours later, cell proliferation reagent was added and cell viability was measured compared to untreated control cultures. Cell viability was plotted against the compound concentration, and nonlinear regression analysis was performed to evaluate the 50% cytotoxic concentration (CC50).
The miniCD4 conjugates were then evaluated for their cytotoxic activity according to the protocol described above. All cytotoxic results are reported in the table below in the form of CC50 values (nM).

IIIB viral strain (B-X4) = test: microbe, parasite or virus in culture; type: cell-based, HIV; settings: Human immunodeficiency virus 1, IIIB; TZM-bl cells, luciferase, 48 h; clade-tropism B-X4
Experimental: as §1, §2

MN viral strain (B-X4) = test: microbe, parasite or virus in culture; type: cell-based, HIV; settings: Human immunodeficiency virus 1; TZM-bl cells, luciferase, 48 h; clade-tropism B-X4
Experimental: as §1, §2

[3] = test system: Ca10-3 (CRF01) viral strain (AE-X4); test: microbe, parasite or virus in culture; type: cell-based, HIV; settings: Human immunodeficiency virus 1, TZM-bl, 48 h, read-out: EC50, viral strain Ca10-3 (CRF01)
Experimental: as §1, §2

Bal viral strain (B-R5) = test: microbe, parasite or virus in culture; type: cell-based, HIV; settings: Human immunodeficiency virus 1, BAL; TZM-bl cells, luciferase, 48 h; clade-tropism B-R5
Experimental: as §1, §2

[4] = test system: SF162 viral strain (B-R5); test: microbe, parasite or virus in culture; type: cell-based, HIV; settings: Human immunodeficiency virus 1; TZM-bl cells, luciferase, 48 h; clade-tropism B-R5
Experimental: as §1, §2

[5] = test system: pREJO.c/2864 cl2 viral strain (B-R5); test: microbe, parasite or virus in culture; type: cell-based, HIV; settings: Human immunodeficiency virus 1, TZM-bl, 48 h, read-out: EC50, viral strain pREJO.c/2864 cl2
Experimental: as §1, §2

[6] = test system: MP568 (CRF02) viral strain (AG-R5); test: microbe, parasite or virus in culture; type: cell-based, HIV; settings: Human immunodeficiency virus 1, TZM-bl, 48 h, read-out: EC50, viral strain MP568 (CRF02)
Experimental: as §1, §2

[7] = test system: VI820 viral strain (A-X4R5); test: microbe, parasite or virus in culture; type: cell-based, HIV; settings: Human immunodeficiency virus 1, TZM-bl, 48 h, read-out: EC50, viral strain VI820
Experimental: as §1, §2

[8] = test system: VI1888 (CRF01) viral strain (AE-R5); test: microbe, parasite or virus in culture; type: cell-based, HIV; settings: Human immunodeficiency virus 1, TZM-bl, 48 h, read-out: EC50, viral strain VI1888 (CRF01)
Experimental: as §1, §2

[9] = test system: VI829 viral strain (C-R5); test: microbe, parasite or virus in culture; type: cell-based, HIV; settings: Human immunodeficiency virus 1; TZM-bl cells, luciferase, 48 h; clade-tropism C-R5
Experimental: as §1, §2

[10] = test system: p246F10 viral strain (C-R5); test: microbe, parasite or virus in culture; type: cell-based, HIV; settings: Human immunodeficiency virus 1, TZM-bl, 48 h, read-out: EC50, viral strain p246F10
Experimental: as §1, §2

[11] = test system: VI824 viral strain (D-R5); test: microbe, parasite or virus in culture; type: cell-based, HIV; settings: Human immunodeficiency virus 1, TZM-bl, 48 h, read-out: EC50, viral strain VI824
Experimental: as §1, §2

Structure (SMILES): Cc1cc(C)c(Nc2ccnc(Nc3ccc(C#N)cc3)n2)c(C)c1 [Dapivirine (TMC120), Dapivirine]
- EC50 [1]: > 1000 nM
- CC50 at 48 h [2]: 2520 nM
- EC50 (IIIB viral strain (B-X4)): 0.84 nM
- EC50 (MN viral strain (B-X4)): 1.5 nM
- EC50 [3]: 1.3 nM
- EC50 (Bal viral strain (B-R5)): 1.65 nM
- EC50 [4]: 1.3 nM
- EC50 [5]: 1.6 nM
- EC50 [6]: 1.1 nM
- EC50 [7]: 1.95 nM
- EC50 [8]: 2.1 nM
- EC50 [9]: 1.3 nM
- EC50 [10]: 1.4 nM
- EC50 [11]: 1.2 nM
